Experimental data published in patent US6399654B1, “Biflavanoids and derivatives thereof as antiviral agents” (priority 1995, dated 2002).
In brackets after ≈: the same amount, converted by molar mass. Several values for one entry are separate records, joined by “and”; a condition that tells them apart may be missing. Equal values may be shown once. Read-outs that look alike come from different tables or passages of the source.

Key:
[1] = system: Parainfluenza Type 3 Virus; assay: organism not typed; assay type: cell-based; settings: MA104; Parainfluenza Type 3 Virus; read-out: CPI Inhibition EC50
[2] = system: HSV-2; assay: HSV-2 CPE inhibition in HFF cells
[3] = in vitro; settings: African green monkey, Neutral Red IC50 (cytotoxic)
[4] = system: Adenovirus Type 5; assay: microbe, parasite or virus in culture; assay type: cell-based; settings: Human mastadenovirus C, A549, read-out: CPE Inhibition EC50
[5] = in vitro; settings: dog
[6] = molecular target: T1, HIV-1 RT (Human immunodeficiency virus type 1 group M subtype B, UniProt P03366); assay: Anti-HIV-1 RT assay (recombinant enzyme); assay type: biochemical
T1 construct: made in house; host or cells: Escherichia coli

[7] = in vitro; settings: dog, Neutral Red IC50 (cytotoxic)
[8] = in vitro; settings: human
[9] = system: Respiratory Syncytial Virus; assay: microbe, parasite or virus in culture; assay type: cell-based; settings: human respiratory syncytial virus, MA104; read-out: Neutral Red EC50
[10] = system: African green monkey kidney (MA-104) cells
[11] = system: HSV-1; assay: HSV-1 CPE inhibition in HFF cells
[12] = system: Influenza A (H3N2) Beijing/32/92; assay: microbe, parasite or virus in culture; assay type: cell-based, influenza A virus; settings: Influenza A virus, MDCK; Influenza A (H3N2) Beijing/32/92; read-out: Neutral Red EC50
[13] = system: Parainfluenza Type 3 Virus; assay: organism not typed; assay type: cell-based; settings: MA104, read-out: Neutral Red EC50
[14] = system: Influenza A (H1N1) Texas/36/91; assay: microbe, parasite or virus in culture; assay type: cell-based, influenza A virus; settings: Influenza A virus, MDCK; Influenza A (H1N1) Texas/36/91; read-out: CPE Inhibition EC50
[15] = system: Hepatitis B Virus (HBV); assay: Inhibition of HBV replication in 2.2.15 cells, extracellular (virion) HBV DNA; settings: Hepatitis B virus, 216 h;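 further: extracellular virion HBV DNA in culture medium measured by slot blot hybridization with a 32P-labeled HBV probe, quantified against HBV DNA standards, after 9 days of daily dosing, compared with day 0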
[16] = system: Influenza A (H1N1) Texas/36/91; assay: microbe, parasite or virus in culture; assay type: cell-based, influenza A virus; settings: Influenza A virus, MDCK; Influenza A (H1N1) Texas/36/91; read-out: Neutral Red EC50
[17] = in vitro; settings: African green monkey
[18] = system: human PBM cells
[19] = system: HCMV; assay: HCMV CPE inhibition in HFF cells
[20] = system: Influenza B Panama/45/90; assay: microbe, parasite or virus in culture; assay type: cell-based; settings: Influenza B virus, MDCK, read-out: CPE Inhibition EC50
[21] = system: Influenza B Panama/45/90; assay: microbe, parasite or virus in culture; assay type: cell-based; settings: Influenza B virus, MDCK, read-out: Neutral Red EC50
[22] = system: Measles Virus; assay: microbe, parasite or virus in culture; assay type: cell-based; settings: Measles morbillivirus, BSC-1; Measles Virus; read-out: CPI Inhibition EC50
[23] = system: VZV; assay: VZV plaque reduction assay in HFF cells
[24] = in vitro; settings: human; remark: listed apart in the source
[25] = system: Measles Virus; assay: Measles virus neutral red dye uptake in BSC-1 cells; assay type: cell-based; settings: Measles morbillivirus, BSC-1
[26] = system: HIV-1 (strain LAV-1); assay: microbe, parasite or virus in culture; assay type: cell-based
[27] = system: Influenza A (H3N2) Beijing/32/92; assay: microbe, parasite or virus in culture; assay type: cell-based, influenza A virus; settings: Influenza A virus, MDCK; Influenza A (H3N2) Beijing/32/92; read-out: CPE Inhibition EC50
[28] = system: Adenovirus Type 5; assay: Adenovirus type 5 neutral red dye uptake in A549 cells; assay type: cell-based; settings: Human mastadenovirus C, A549, read-out: Neutral Red EC50

O=c1cc(-c2ccc(Oc3c(O)cc4oc(-c5ccc(O)cc5)cc(=O)c4c3O)cc2)oc2cc(O)cc(O)c12 [Hinokiflavone (4), hinokiflavone]
EC50 [1]: > 1 µg/mL
HSV-2 SI (CC50/EC50) ([2]; HFF Cells): <319
EC50 ([2]; Human alphaherpesvirus 2, HFF, read-out: HSV-2 CPE Inhibition EC50): > 20 µg/mL
IC50 [3]: 6 µg/mL (≈ 11.1 µM)
EC50 [4]: > 10 µg/mL
IC50 ([5]; CPE Inhibition IC50 (50% cell inhibitory (cytotoxic) concentration), Influenza A (H1N1) test): 1.4 µg/mL (≈ 2.6 µM)
IC50 ([5]; CPE Inhibition IC50 (cytotoxic), Influenza A (H3N2) test): 1.3 µg/mL (≈ 2.41 µM)
IC50 ([5]; CPE Inhibition IC50 (cytotoxic), Influenza B test): 1.2 µg/mL (≈ 2.23 µM)
IC50 ([6]; Anti-HIV-1 RT IC50, values in parentheses or in words): 62 µM
IC50 ([6]; HIV-1 RT IC50 (50% inhibition dose)): 65.4 µM and 62.6 µM
inhibition at 200 µg/mL ([6]; read-out: Anti-HIV-1 RT % Inhibition at 200 μg/ml): 89%
IC50 ([7]; Influenza A (H1N1) test): 2 µg/mL (≈ 3.71 µM)
IC50 ([7]; Influenza A (H3N2) test): 2.2 µg/mL (≈ 4.09 µM)
IC50 ([7]; Influenza B test): 2 µg/mL (≈ 3.71 µM)
IC50 [8]: 9.1 µM
EC50 [9]: > 3.2 µg/mL
Neutral Red IC50 (cytotoxic) [10]: 7 µg/mL
HSV-1 SI (CC50/EC50) ([11]; HFF Cells): <3.9
EC50 ([11]; Human alphaherpesvirus 1, HFF, read-out: HSV-1 CPE Inhibition EC50): > 20 µg/mL
EC50 [12]: 1.9 µg/mL (≈ 3.53 µM)
EC50 [13]: 5 µg/mL (≈ 9.29 µM)
EC50 [14]: > 1 µg/mL
EC50 ([15]; read-out: EC50 (50% effective dose), HBV Virion, 2.2.15 cells, extracellular (virion) HBV DNA, 9 days treatment): > 100 µM
EC90 ([15]; read-out: EC90 (90% effective dose), HBV Virion, 2.2.15 cells, extracellular (virion) HBV DNA, 9 days treatment): > 100 µM
EC50 [16]: 1.8 µg/mL (≈ 3.34 µM)
IC50 ([17]; CPE Inhibition IC50 (cytotoxic), Respiratory Syncytial Virus test): 2.5 µg/mL (≈ 4.64 µM)
IC50 ([17]; CPI Inhibition IC50 (cytotoxic), Parainfluenza Type 3 Virus test): 1 µg/mL (≈ 1.86 µM)
toxicity against uninfected PHA-stimulated human PBM cells (in words) [18]: high toxicity
HCMV SI (CC50/EC50) ([19]; HFF Cells): <3.2
EC50 ([19]; Human betaherpesvirus 5, HFF, read-out: HCMV CPE Inhibition EC50): > 0.8 µg/mL
EC50 [20]: > 1 µg/mL
EC50 [21]: 1.9 µg/mL (≈ 3.53 µM)
EC50 [22]: < 3 µg/mL
VZV SI (CC50/EC50) ([23]; HFF Cells): <4.2
EC50 ([23]; Human alphaherpesvirus 3, HFF, read-out: VZV Plaque Reduction EC50): > 4 µg/mL
CC50 at 14 days ([24]; HCMV CPE Inhibition CC50): 2.6 µg/mL (≈ 4.83 µM)
CC50 at 3 days ([24]; HSV-1 CPE Inhibition CC50): 77.7 µg/mL (≈ 144 µM)
CC50 at 3 days ([24]; HSV-2 CPE Inhibition CC50): 77.5 µg/mL (≈ 144 µM)
CC50 at 10 days ([24]; VZV Plaque Reduction CC50): 16.8 µg/mL (≈ 31.2 µM)
EC50 [25]: < 5 µg/mL
EC50 ([26]; Human immunodeficiency virus 1, PBMC, human PBM cells infected with HIV-1 (strain LAV), read-out: Ant-HIV-1 in PBM cells EC50): 4.1 µM
Selective Index (SI) ([26]; PBM cells): <1
EC50 [27]: > 3.2 µg/mL
EC50 [28]: 19 µg/mL (≈ 35.3 µM)
